Experimental data as given in US20130225517A1, “Therapeutic Compounds” (University of Iowa Research Foundation, priority 2012, published 2013).
Read-outs that look alike come from different tables or passages of the source.

How the values were obtained:
[1] = target: T1, Dnmt1 (Homo sapiens, UniProt P26358); assay: Glal restriction endonuclease-coupled DNA methylation assay (Test A); format: biochemical
Source text: (§1) A Glal restriction endonuclease-coupled DNA methylation assay was used to assess Dnmt1 activity (Syeda et al, J Biol Chem 2011, 286, 15344-15351). Upon methylation of the DNA substrate by Dnmt1, the DNA substrate is cleaved by Glal, freeing a 5′ fluorophore from the 3′ quencher, and generating a fluorescence signal. Inhibition of Dnmt1 results in a loss of fluorescence generation.
as §1, with “assay” for “assay was used”
First, laccaic acid was screened against the methyl-specific restriction endonuclease Glal (SibEnzyme, West Roxbury, Mass.) to ensure that the compound was not inhibiting Glal rather than Dnmt1. […] Increasing concentrations of laccaic acid A were used in the endonuclease-coupled DNA methylation assay to determine an IC50 value for the compound. […] Lastly, differential scanning fluorimetry was used to determine if laccaic acid A was a direct binder of Dnmt1 in the absence of the DNA or S-adenosyl methionine substrate.

[2] = test system: methyl-specific restriction endonuclease Glal; assay: Counter-screen against methyl-specific restriction endonuclease Glal; format: biochemical; conditions: under all conditions tested
Protocol: (§2) Laccaic acid A was further validated as a Dnmt1 inhibitor in three assays. First, laccaic acid was screened against the methyl-specific restriction endonuclease Glal (SibEnzyme, West Roxbury, Mass.) to ensure that the compound was not inhibiting Glal rather than Dnmt1. Under all conditions tested, Glal had full activity in the presence of laccaic acid A. Next, the concentration dependence of laccaic acid A inhibition on Dnmt1 activity was assessed. Increasing concentrations of laccaic acid A were used in the endonuclease-coupled DNA methylation assay to determine an IC50 value for the compound. Laccaic acid A was determined to have an IC50 value of 400 nM. […] Lastly, differential scanning fluorimetry was used to determine if laccaic acid A was a direct binder of Dnmt1 in the absence of the DNA or S-adenosyl methionine substrate.

[3] = target: T1, Dnmt1; assay: Differential scanning fluorimetry, direct binding to Dnmt1; conditions: increase from 44° C.; absence of the DNA or S-adenosyl methionine substrate
Protocol: as §2

[4] = Table 1, Glal restriction endonuclease-coupled DNA methylation assay, read-out: IC50 (μM), Dnmt1 inhibition activity

T1 sequence (P26358 whole entry): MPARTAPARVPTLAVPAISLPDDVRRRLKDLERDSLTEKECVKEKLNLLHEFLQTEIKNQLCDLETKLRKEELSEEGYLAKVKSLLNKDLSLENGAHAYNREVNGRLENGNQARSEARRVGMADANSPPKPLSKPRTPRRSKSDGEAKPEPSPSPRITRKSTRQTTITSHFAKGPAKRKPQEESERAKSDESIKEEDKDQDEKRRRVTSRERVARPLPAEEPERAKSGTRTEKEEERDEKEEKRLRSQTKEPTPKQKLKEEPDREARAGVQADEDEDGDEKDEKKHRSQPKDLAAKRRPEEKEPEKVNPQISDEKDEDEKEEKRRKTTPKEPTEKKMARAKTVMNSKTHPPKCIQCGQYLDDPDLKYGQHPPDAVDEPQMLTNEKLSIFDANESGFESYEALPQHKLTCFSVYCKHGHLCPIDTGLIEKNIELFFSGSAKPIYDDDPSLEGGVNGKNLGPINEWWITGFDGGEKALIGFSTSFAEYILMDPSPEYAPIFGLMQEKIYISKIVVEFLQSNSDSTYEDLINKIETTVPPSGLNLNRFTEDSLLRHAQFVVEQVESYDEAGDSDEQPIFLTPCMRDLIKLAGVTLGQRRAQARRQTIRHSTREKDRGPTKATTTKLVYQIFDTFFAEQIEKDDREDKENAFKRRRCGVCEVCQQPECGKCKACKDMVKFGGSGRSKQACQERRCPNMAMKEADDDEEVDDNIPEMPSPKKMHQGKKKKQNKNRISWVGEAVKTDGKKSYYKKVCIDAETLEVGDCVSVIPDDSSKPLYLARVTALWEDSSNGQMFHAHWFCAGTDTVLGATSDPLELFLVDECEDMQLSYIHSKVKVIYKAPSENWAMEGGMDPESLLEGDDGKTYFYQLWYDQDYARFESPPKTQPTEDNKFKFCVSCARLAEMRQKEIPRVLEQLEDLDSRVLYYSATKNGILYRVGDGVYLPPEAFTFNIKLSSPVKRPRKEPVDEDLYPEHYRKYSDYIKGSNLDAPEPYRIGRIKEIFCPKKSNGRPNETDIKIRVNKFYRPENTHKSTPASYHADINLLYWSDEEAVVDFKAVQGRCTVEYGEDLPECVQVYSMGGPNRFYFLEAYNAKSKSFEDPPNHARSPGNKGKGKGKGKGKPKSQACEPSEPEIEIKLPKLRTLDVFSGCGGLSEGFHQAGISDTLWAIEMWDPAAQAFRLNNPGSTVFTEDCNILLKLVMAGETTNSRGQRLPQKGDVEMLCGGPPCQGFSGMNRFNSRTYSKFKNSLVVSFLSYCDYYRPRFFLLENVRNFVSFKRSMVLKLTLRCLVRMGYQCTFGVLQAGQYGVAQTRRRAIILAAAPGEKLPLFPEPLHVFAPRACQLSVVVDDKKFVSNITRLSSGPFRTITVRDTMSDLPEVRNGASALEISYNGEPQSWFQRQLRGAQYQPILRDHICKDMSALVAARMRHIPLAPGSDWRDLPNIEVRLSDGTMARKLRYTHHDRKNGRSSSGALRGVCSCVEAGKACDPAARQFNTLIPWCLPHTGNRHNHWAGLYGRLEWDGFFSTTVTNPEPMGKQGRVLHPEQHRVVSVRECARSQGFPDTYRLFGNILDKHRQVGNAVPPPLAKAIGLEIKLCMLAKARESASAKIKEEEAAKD

Structure (SMILES)	IC50 [1, 4]	further results
CC(=O)NCCc1ccc(O)c(-c2c(O)c(O)c3c(c2O)C(=O)c2c(cc(O)c(C(=O)O)c2C(=O)O)C3=O)c1 [II, Laccaic Acid A]	2.1 µM	IC50 ([1]; increasing concentrations in the endonuclease-coupled DNA methylation assay, read-out: IC50 value, inhibition of Dnmt1 activity): 0.4 µM; fold more potent at inhibition of Dnmt1 than SG14027 ([1]; ratio of IC50 values, versus SG14027): 5 fold; outcome of high throughput screen for inhibitors of Dnmt1 activity ([1]; screen of the Spectrum collection (Microsource)): hit; Glal activity in the presence of compound [2]: full activity; observed melting temperature of Dnmt1 after addition of compound [3]: 45.7 °C
Oc1cc(Cl)ccc1Oc1ccc(Cl)cc1Cl [III, Triclosan, reference compound]	3.8 µM	–
O=C1c2ccccc2C(=O)c2c1ccc(O)c2O [VI, Alizarin]	11 µM	–
O=c1c(O)c(-c2ccc(O)c(O)c2)oc2c(O)c(O)cc(O)c12 [VII, Gossypetin]	2.9 µM	–
O=C1C=CC(=O)c2c(O)cccc21 [VIII, Juglone]	1.7 µM	–

Now from value to compound, other results behind:

IC50 [1, 4]	Structure (SMILES)	further results
0.45 µM	O=C(O)c1cc(O)c2c(c1)[C@@H]([C@H]1c3cc(C(=O)O)cc(O)c3C(=O)c3c(O[C@H]4O[C@H](CO)[C@@H](O)[C@H](O)[C@H]4O)cccc31)c1cccc(O[C@H]3O[C@H](CO)[C@@H](O)[C@H](O)[C@H]3O)c1C2=O [IV, Sennoside A, reference compound]	–
0.33 µM	O=C(O)C(S)C(S)C(=O)O (centres unmarked) [IX, 2,3-Dimercaptosuccinic Acid, reference compound]	–
0.45 µM	O=C(O)c1cc(O)c2c(c1)[C@@H]([C@@H]1c3cc(C(=O)O)cc(O)c3C(=O)c3c(O[C@H]4O[C@H](CO)[C@@H](O)[C@H](O)[C@H]4O)cccc31)c1cccc(O[C@H]3O[C@H](CO)[C@@H](O)[C@H](O)[C@H]3O)c1C2=O [V, Sennoside B, reference compound]	–
6.1 µM	CSc1nc2cc(Cl)c(Oc3cccc(Cl)c3Cl)cc2[nH]1 [XI, Triclabendazole, reference compound]	–
